Data: patent US20230190695A1, “TRIBUTYRIN SUPPLEMENTATION PROVIDES BENEFITS FOR MENTAL WELLNESS, IMMUNE HEALTH AND FAT METABOLISM” (PHARMAVITE LLC, priority 2021, published 2023)

How the values were obtained:
C57BL/6J mice [1] = assay: Forced swim test (FST) after acute restraint stress; type: in vivo; details: for time immobile in the FST: combined female + male, study day 52; for immobility in the FST: vs sex-matched untreated stressed control
Method: (§1) A study was conducted to evaluate tributyrin on stress and mood-related behaviors in female and male C57BL/6J mice. The animals were given immediate ad libitum access to water and standard rodent chow and were acclimated to the facility for 7 days. On study day -3, fat and muscle content was measured using nuclear magnetic resonance spectroscopy (NMR: MiniSpec NMR, Bruker LF50 Body Composition Analyzer). On study day 0, the animals were weighed, blood and fecal samples (1-2 pellets/animal) were collected, and the animals were randomized into their specific treatment group. Daily oral gavage of 4 distinct groups commenced as follows: • Treatment 1: daily PBS vehicle + no acute stress before behavioral measures • Treatment 2: daily PBS vehicle + acute stress before behavioral measures • Treatment 3: daily low-dose tributyrin (60 mg/kg/d) + acute stress before behavioral measures • Treatment 4: daily high-dose tributyrin (200 mg/kg/d) + acute stress before behavioral measures
(§2) After 7 weeks of intervention, blood and fecal samples were collected on study day 49, and fecal collection was repeated on study days 50 and 52. On study day 52, animals assigned to the acute stress groups were acutely restrained for two hours while unstressed animals were housed singly for 140 minutes in fresh cages. […] All animals were then tested in the forced swim test (FST). A retro-orbital blood sample was collected within 15 to 30 minutes after the FST, and fecal pellets were collected (for corticosterone measurements). On study day 53, the animals were weighed, and body composition by NMR was performed a second time. The study was terminated on study day 56, blood was collected and necropsies were performed. Serum cytokine levels were evaluated in terminal serum.
Forced Swim Test (FST) is a test centered on a rodent’s response to unescapable stress. Results of this test have been interpreted as a measure of susceptibility to negative mood. It is commonly used to measure the effectiveness of antidepressants. Forced swim tests were performed on study day 52 for each cohort of mice.

C57BL/6J mice [2] = assay: Body weight and body composition by NMR; type: in vivo; details: for final fat as a percentage of baseline: all mice, vs combined unstressed untreated control
Method: as §1, §2

C57BL/6J mice [3] = assay: Cytokine concentrations in terminal serum; type: in vivo; details: male mice
Method: as §1, §2

[4] = system: combined microbiota of 10 healthy adult human donors; assay: Colonic simulation, in vitro gut simulation model: microbial composition
Method: The impact of two doses of tributyrin on gut microbiota composition and microbial metabolites was studied in an in vitro gut simulation model using combined microbiota of 10 healthy adult human donors (5 males, 5 females, 30-60 years old, BMI<30). The retention times and pH ranges were optimized in order to obtain results that are representative for a full GIT simulation. A stabilization period was followed by a two-week control period and three weeks of treatment, where 59% of 300 mg/day or 59% of 1000 mg/day was administered daily (based on release profile described above). Samples were collected at the end of control period and treatment period. Both doses were performed in biological triplicate to account for biological variability. […] Higher ratio of Bacteroidetes:Firmicutes is associated with lean phenotype. Tributyrin treatment increases this ratio as illustrated in FIG. 4 and therefore may provide metabolic health benefit. • At species level, importantly, Akkermansia muciniphila and Faecalibacterium prausnitzii were enriched in tributyrin-treated compartments. • Akkermansia muciniphila is an acetate and propionate-producing, mucin-degrading bacteria. Its presence in the gut is associated with health benefits. An inverse relationship- between colonization of Akkermansia muciniphila and inflammatory conditions or obesity have been shown. […] Both Parabacteroides distasonis and Parabacteroides goldsteinii were stimulated in the proximal colon and distal colon for both low and high doses of tributyrin.

[5] = system: combined microbiota of 10 healthy adult human donors; assay: Colonic simulation, in vitro gut simulation model: butyrate and microbial metabolites; parameters: Indole-3-acetic acid / Indole-3-aldehyde / Indole-3-ethanol / Tryptophan / 5-Hydroxyindoleacetic acid / Tryptamine: unit not given here; details: for 1-Acetyl-3-indolecarboxyaldehyde / 5-Hydroxyindoleacetic acid / Indole / Indole-3-acetic acid / Indole-3-acrylic acid / Melatonin / Serotonin / Skatole / Tryptamine / Tryptophan / Indole-3-ethanol / Indole-3-aldehyde / Indole-3-propionic acid: Treatment; for average increase of butyrate as compared to the control period / average increase of butyrate: highest dose (59% of 1000 mg/day); for average increase of butyrate: vs control period
Method: The impact of two doses of tributyrin on gut microbiota composition and microbial metabolites was studied in an in vitro gut simulation model using combined microbiota of 10 healthy adult human donors (5 males, 5 females, 30-60 years old, BMI<30). The retention times and pH ranges were optimized in order to obtain results that are representative for a full GIT simulation. A stabilization period was followed by a two-week control period and three weeks of treatment, where 59% of 300 mg/day or 59% of 1000 mg/day was administered daily (based on release profile described above). Samples were collected at the end of control period and treatment period. Both doses were performed in biological triplicate to account for biological variability.

C57BL/6J mice [6] = assay: Fecal metabolite analysis (GC, UHPLC-HRMS); type: in vivo
Method: as §1, §2
Gut microbiota metabolizes ingested food and supplements in the colon thereby producing various metabolites, which have an impact on several host biological processes. These metabolites generated in the colon can be measured in the feces. A panel of metabolites were measured in feces collected from experimental mice 8 weeks post-treatment. Fecal SCFA were measured by Gas Chromatography (GC) and tryptophan metabolites were measured using Ultra High Performance Liquid Chromatography High Resolution Mass Spectrometry (UHPLC-HRMS). Comparisons were made between stressed untreated mice and tributyrin treated stressed mice.

[7] = system: Caco-2/THP1 (colonic cells/macrophages) co-culture; assay: Caco-2/THP1 co-culture immunomodulation model; type: cell-based
Source text: An in vitro Caco-2/THP1 (colonic cells/macrophages) co-culture model was used to assess the effect of microbial metabolites on proinflammatory or ant-inflammatory cytokines and chemokines which serve as markers for immunomodulation.

C57BL/6J mice [8] = assay: Fecal corticosterone after forced swim test; type: in vivo; details: male mice; 200 mg/kg/d; vs stressed vehicle control
Method: as §1
After 7 weeks of intervention, blood and fecal samples were collected on study day 49, and fecal collection was repeated on study days 50 and 52. On study day 52, animals assigned to the acute stress groups were acutely restrained for two hours while unstressed animals were housed singly for 140 minutes in fresh cages. […] Serum cytokine levels were evaluated in terminal serum. […]

[9] = 60 mg/kg/d, vs stressed vehicle control
[10] = proximal colon and distal colon, both low and high doses
[11] = Distal Colon, High Dose (59% of 1000 mg/day)
[12] = Distal Colon, Low Dose (59% of 300 mg/day)
[13] = Proximal Colon, High Dose (59% of 1000 mg/day)
[14] = Proximal Colon, Low Dose (59% of 300 mg/day)
[15] = low dose (60 mg/kg/d), 8 weeks post-treatment
[16] = DC-Low (distal colon, low dose)
[17] = PC-High (proximal colon, high dose)
[18] = PC-Low (proximal colon, low dose)

In the case of `CCCC(=O)OCC(COC(=O)CCC)OC(=O)CCC` [tributyrin], the “time immobile in the FST” value (C57BL/6J mice [1]; 60 mg/kg/d oral gavage, vs stressed untreated control) is reported as “reductions in time immobile in the FST were statistically significant”, the “immobility in the FST” value (C57BL/6J mice [1]; 60 mg/kg, females) is reported as “reduced immobility” and the “time immobile in the FST” value (C57BL/6J mice [1]; 200 mg/kg/d oral gavage, vs stressed untreated control and vs unstressed control) is reported as “reductions in time immobile in the FST were statistically significant”. For the same molecule, the “immobility in the FST” value (C57BL/6J mice [1]; 200 mg/kg, males) was “reduced immobility”, the “final fat as a percentage of baseline” value (C57BL/6J mice [2]; 60 mg/kg/d) was “statistically reduced” and the “final fat as a percentage of baseline” value (C57BL/6J mice [2]; 200 mg/kg/d) was “statistically reduced”. The “Lean:Fat ratio” value (C57BL/6J mice [2]; treated mice vs untreated control) was “significantly increased”, the “IL-2 in terminal serum” value (C57BL/6J mice [3]; 60 mg/kg/d, vs stressed mice) was “reduced significantly” and the “IL-4 in terminal serum” value (C57BL/6J mice [3]; 60 mg/kg/d, vs stressed mice) was “reduced significantly”. For the same molecule, the “IFNγ in terminal serum” value (C57BL/6J mice [3]; [9]) was “significantly reduced”, the “MIP-1a in terminal serum” value (C57BL/6J mice [3]; [9]) was “significantly reduced” and the “IL-4 in terminal serum” value (C57BL/6J mice [3]; 200 mg/kg/d, vs stressed mice) was “reduced significantly”. For the same molecule, the “MIP-1a in terminal serum” value (C57BL/6J mice [3]; 200 mg/kg/d, vs stressed vehicle control) was “significantly reduced”, the Faecalibacterium prausnitzii abundance ([4]; PC and DC, low and high dose) was “enriched” and the Akkermansia muciniphila abundance ([4]; PC and DC, low- and high-dose) was “enriched”. The “gut microbial diversity (Simpson Diversity Index)” value ([4]; both low and high dose) was “increase”, the “ratio of Bacteroidetes:Firmicutes” value ([4]; distal colon, low and high dose vs control (FIG. 4)) was “increases” and the “Parabacteroides merdae ATCC 43184 abundance” value ([4]; proximal colon) was “specific stimulation”. For the same molecule, the Tannerellaceae levels ([4]; proximal colon) was “increased”, the Parabacteroides distasonis abundance [4, 10] was “stimulated” and the Parabacteroides goldsteinii abundance [4, 10] was “stimulated”. The 1-Acetyl-3-indolecarboxyaldehyde [5, 11] was “< LOD”, the 5-Hydroxyindoleacetic acid [5, 11] was 0.001 and the Indole [5, 11] was “< LOD”. For the same molecule, the Indole-3-acetic acid [5, 11] was 0.644, the Indole-3-acrylic acid [5, 11] was “< LOD” and the Melatonin [5, 11] was “< LOD”. For the same molecule, the Serotonin [5, 11] was “< LOD”, the Skatole [5, 11] was “< LOD” and the Tryptamine [5, 11] was 0.175. The Tryptophan [5, 11] was 0.095, the 1-Acetyl-3-indolecarboxyaldehyde [5, 12] was “< LOD” and the 5-Hydroxyindoleacetic acid [5, 12] was 0.001. The Indole [5, 12] was “< LOD”, the Indole-3-acrylic acid [5, 12] was “< LOD” and the Indole-3-ethanol [5, 12] was 0.284. For the same molecule, the Melatonin [5, 12] was “< LOD”, the Serotonin [5, 12] was “< LOD” and the Skatole [5, 12] was “< LOD”. For the same molecule, the Tryptamine [5, 12] was 0.205, the Tryptophan [5, 12] was 0.116 and the 1-Acetyl-3-indolecarboxyaldehyde [5, 13] was “< LOD”. The 5-Hydroxyindoleacetic acid [5, 13] was 0.008, the Indole [5, 13] was “< LOD” and the Indole-3-acetic acid [5, 13] was 0.916. For the same molecule, the Indole-3-acrylic acid [5, 13] was “< LOD”, the Indole-3-aldehyde [5, 13] was 0.058 and the Indole-3-propionic acid [5, 13] was 0.01. For the same molecule, the Melatonin [5, 13] was “< LOD”, the Serotonin [5, 13] was “< LOD” and the Skatole [5, 13] was “< LOD”. The Tryptamine [5, 13] was 0.105, the 1-Acetyl-3-indolecarboxyaldehyde [5, 14] was “< LOD” and the 5-Hydroxyindoleacetic acid [5, 14] was 0.01. For the same molecule, the Indole [5, 14] was “< LOD”, the Indole-3-acrylic acid [5, 14] was “< LOD” and the Indole-3-aldehyde [5, 14] was 0.06. The Indole-3-ethanol [5, 14] was 0.266, the Indole-3-propionic acid [5, 14] was 0.008 and the Melatonin [5, 14] was “< LOD”. The Serotonin [5, 14] was “< LOD”, the Skatole [5, 14] was “< LOD” and the Tryptamine [5, 14] was 0.118. The butyrate levels ([5]; both proximal colon and distal colon, on initiation of treatment) was “significantly enhanced”, the “average increase of butyrate as compared to the control period” value ([5]; distal colon) was 78.8% and the “average increase of butyrate” value ([5]; distal colon) was 7.7 mM. For the same molecule, the “average increase of butyrate as compared to the control period” value ([5]; proximal colon) was 91.9%, the “average increase of butyrate” value ([5]; proximal colon) was 7.4 mM and the tryptophan in feces (C57BL/6J mice [6]; high dose (200 mg/kg/d), 8 weeks post-treatment) was 142.8 ± 53.4 ng/mg. For the same molecule, the “Indole-3-acetic acid in feces” value (C57BL/6J mice [6]; [15]) was 1.56 ± 1.17 ng/mg, the tryptophan in feces (C57BL/6J mice [6]; [15]) was 154.9 ± 98.7 ng/mg and the “fecal SCFA levels” value (C57BL/6J mice [6]; treated mice vs untreated stressed controls) was “No differences”. The “IL6, treatment suspensions normalized to blank control suspensions” value (shortened to “IL6, treatment suspensions normalized”) [7, 16] was 1.13, the “IL10, treatment suspensions normalized to blank control suspensions” value [7, 16] was 1.03 and the “IL-1B, treatment suspensions normalized to blank control suspensions” value (“IL-1B, treatment suspensions normalized” for short) [7, 16] was 1.07. The “MCP1, treatment suspensions normalized to blank control suspensions” value [7, 16] was 1.05, the “IL6, treatment suspensions normalized” value [7, 17] was 1.31 and the “IL8, treatment suspensions normalized to blank control suspensions” value [7, 17] was 1.03. The “IL-1B, treatment suspensions normalized” value [7, 17] was 1.08, the “MCP1, treatment suspensions normalized to blank control suspensions” value [7, 17] was 0.97 and the “IL6, treatment suspensions normalized” value [7, 18] was 1.01. The “IL8, treatment suspensions normalized to blank control suspensions” value [7, 18] was 1.3, the “IL10, treatment suspensions normalized to blank control suspensions” value [7, 18] was 1.06 and the “IL-1B, treatment suspensions normalized” value [7, 18] was 1.08. The “TNFa, treatment suspensions normalized to blank control suspensions” value [7, 18] was 1.06 and the “fecal corticosterone levels after FST” value (C57BL/6J mice [8]) was “statistical reduction”.
